# US9097673B2, “Processes and kits for determining multi-drug resistance of cells” (ENZO LIFE SCIENCES, INC., priority 2010, dated 2015)
# Where “and” joins values, the source holds several entries; their conditions need not be identical. Equal entries are not always repeated. Where two headings read alike, the source gives them in different places.
# How the values were obtained:
# A549 cell line = assay: Dye uptake flow cytometry MDR assay; type: cell-based, human
# CHO K1 cell line = assay: Dye uptake flow cytometry MDR assay; type: cell-based, hamster;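 also: flow cytometry of dye-loaded cells, Kolmogorov-Smirnov D value (0 to 1.0) comparing fluorescence with versus without inhibitor, made negative when the uninhibited control was brighter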
# HeLa cell line = assay: Dye uptake flow cytometry MDR assay; type: cell-based, human
# [1] = system: U-2 OS cells expressing GFP; assay: Multiplexed MDR detection by flow cytometry (dye uptake, with PI); type: cell-based, human; details: U-2 OS GFP; for R4 + PI compens, MAF / R4 + PI, MAF: Rhod-4 AM + PI; for R4 + PI compens, MAF: compensated; for R4 + PI, MAF: uncompensated; for R4, MAF: Rhod-4 AM probe alone;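 as to F8 + PI, MAF: MAF computed as 100 × (MFI with inhibitor − MFI without) / MFI with inhibitor, after 5 min inhibitor pre-incubation then 30 min dye loading at 37 °C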;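 as to F8, MAF: MAF computed as 100 × (MFI with inhibitor − MFI without) / MFI with inhibitor, after 5 min inhibitor pre-incubation then 30 min dye loading at 37 °C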
# U-2 OS cells = assay: as above; type: cell-based, human; details: for F8 + PI, MAF: Fluo-8 AM + PI; for F8, MAF: Fluo-8 AM probe alone; for R4 + PI compens, MAF / R4 + PI, MAF: Rhod-4 AM + PI; for R4 + PI compens, MAF: compensated; for R4 + PI, MAF: uncompensated; for R4, MAF: Rhod-4 AM probe alone
# [2] = A549, dye uptake, average of three representative experiments (Table 6)
# [3] = CHO K1, dual probes Rhod-4 AM (FL2) + CMFDA (FL1)
# [4] = CHO K1, dye uptake, average of three representative experiments (Table 6)
# [5] = CHO K1, triple probes CMFDA (FL1) + Rhod-4 AM (FL2) + Pheophorbide A (FL3)
# [6] = HeLa, dye uptake, average of three representative experiments (Table 6)
# [7] = CHO K1, dual probes Rhod-4 AM (FL2) + DiOC2(3) (FL1)
# [8] = CHO K1, triple probes DiOC2(3) (FL1) + Rhod-4 AM (FL2) + Pheophorbide A (FL3)
# [9] = A549, dye uptake, average of three independent experiments (Table 10)
# [10] = CHO K1, dye uptake, average of three independent experiments (Table 10)
# [11] = CHO K1, Fluo-8 AM + propidium iodide, uncompensated data
# [12] = CHO K1, Fluo-8 AM probe alone, uncompensated data
# [13] = CHO K1, Rhod-4 AM + propidium iodide, compensated data
# [14] = CHO K1, Rhod-4 AM + propidium iodide, uncompensated data
# [15] = CHO K1, Rhod-4 AM probe alone, uncompensated data
# [16] = CHO K1, dual probes Fluo-8 AM (FL1) + Pheophorbide A (FL3)
# [17] = CHO K1, dual probes Rhod-4 AM (FL2) + Pheophorbide A (FL3)
smiles,measurement,setting,value
"CC(=O)Oc1ccc2c(c1)Oc1cc(OC(C)=O)ccc1C21OC(=O)c2cc(CCl)ccc21 [CMFDA, chloromethylfluorescein diacetate]","D-value, Fumitremorgan C",A549 cell line; [2],0.21
same,"D-value, Probenecid",A549 cell line; [2],0.29
same,"D-value, Verapamil",A549 cell line; [2],0.04
same,"D-values Post Inhibitor Treatment (compared to uninhibited cells), CsA",CHO K1 cell line; [3],0.49
same,"D-values Post Inhibitor Treatment (compared to uninhibited cells), FTC",CHO K1 cell line; [3],0.06
same,"D-values Post Inhibitor Treatment (compared to uninhibited cells), MK-571",CHO K1 cell line; [3],0.91
same,"D-values Post Inhibitor Treatment (compared to uninhibited cells), Verapamil",CHO K1 cell line; [3],0.1
same,"D-value, Fumitremorgan C",CHO K1 cell line; [4],0.09
same,"D-value, Probenecid",CHO K1 cell line; [4],0.7
same,"D-value, Verapamil",CHO K1 cell line; [4],0.19
same,"D-values Post Inhibitor Treatment (compared to uninhibited cells), CsA",CHO K1 cell line; [5],0.47
same,"D-values Post Inhibitor Treatment (compared to uninhibited cells), FTC",CHO K1 cell line; [5],0.14
same,"D-values Post Inhibitor Treatment (compared to uninhibited cells), MK-571",CHO K1 cell line; [5],0.89
same,"D-values Post Inhibitor Treatment (compared to uninhibited cells), Verapamil",CHO K1 cell line; [5],0.10
same,"D-value, Fumitremorgan C",HeLa cell line; [6],0.12
same,"D-value, Probenecid",HeLa cell line; [6],0.03
same,"D-value, Verapamil",HeLa cell line; [6],0
"CCN1C(=CC=Cc2oc3ccccc3[n+]2CC)Oc2ccccc21.[I-] [DiOC2(3), 3,3′-diethyloxacarbocyanine iodide]","D-value, Fumitremorgan C",A549 cell line,0.03
same,"D-value, Probenecid",A549 cell line; [2],0
same,"D-value, Verapamil",A549 cell line; [2],0.07
same,"D-value, Fumitremorgan C",CHO K1 cell line,0
same,"D-values Post Inhibitor Treatment (compared to uninhibited cells), CsA",CHO K1 cell line; [7],0.94
same,"D-values Post Inhibitor Treatment (compared to uninhibited cells), FTC",CHO K1 cell line; [7],0.16
same,"D-values Post Inhibitor Treatment (compared to uninhibited cells), MK-571",CHO K1 cell line; [7],0.13
same,"D-values Post Inhibitor Treatment (compared to uninhibited cells), Verapamil",CHO K1 cell line; [7],0.96
same,"D-value, Probenecid",CHO K1 cell line; [4],0.01
same,"D-value, Verapamil",CHO K1 cell line; [4],0.96
same,"D-values Post Inhibitor Treatment (compared to uninhibited cells), CsA",CHO K1 cell line; [8],0.98
same,"D-values Post Inhibitor Treatment (compared to uninhibited cells), FTC",CHO K1 cell line; [8],0.11
same,"D-values Post Inhibitor Treatment (compared to uninhibited cells), MK-571",CHO K1 cell line; [8],0.13
same,"D-values Post Inhibitor Treatment (compared to uninhibited cells), Verapamil",CHO K1 cell line; [8],0.98
same,"D-value, Fumitremorgan C",HeLa cell line,0.07
same,"D-value, Probenecid",HeLa cell line; [6],0.06
same,"D-value, Verapamil",HeLa cell line; [6],0
"COc1cccc2c1C(=O)c1c(O)c3c(c(O)c1C2=O)C[C@@](O)(C(=O)CO)C[C@@H]3O[C@H]1C[C@H](N)[C@H](O)[C@H](C)O1 [Doxorubicin, doxorubicin]","D-value, Cyclosporine A",A549 cell line; [9],0.14
same,"D-value, FTC",A549 cell line; [9],0.18
same,"D-value, MK-571",A549 cell line; [9],0.24
same,"D-value, Novobiocin",A549 cell line; [9],0.28
same,"D-value, Verapamil",A549 cell line; [9],0.06
same,"D-value, Cyclosporine A",CHO K1 cell line; [10],0.42
same,"D-value, FTC",CHO K1 cell line; [10],0.22
same,"D-value, MK-571",CHO K1 cell line; [10],0.35
same,"D-value, Novobiocin",CHO K1 cell line; [10],0.32
same,"D-value, Verapamil",CHO K1 cell line; [10],0.27
"COc1ccc2c3c([nH]c2c1)[C@H](C=C(C)C)N1C(=O)[C@@H]2CCCN2C(=O)[C@@H]1C3 [FTC, fumitremorgin C]","R4 + PI compens, MAF",[1],6.2
same,"R4 + PI, MAF",[1],25.7
same,"R4, MAF",[1],15.0
same,"F8 + PI, MAF",U-2 OS cells,−6.3
same,"F8, MAF",U-2 OS cells,5.0
same,"R4 + PI compens, MAF",U-2 OS cells,12.6
same,"R4 + PI, MAF",U-2 OS cells,−9.3
same,"R4, MAF",U-2 OS cells,9.9
CN(C)C(=O)CCSC(SCCC(=O)O)c1cccc(/C=C/c2ccc3ccc(Cl)cc3n2)c1 (stereo not shown) [MK-571],"F8 + PI, D-values",CHO K1 cell line; [11],0.92
same,"Fluo-8 ™, D",CHO K1 cell line; [12],0.89
same,"R4 + PI, D-values",CHO K1 cell line; [13],0.94
same,"R4 + PI, D-values",CHO K1 cell line; [14],0.95
same,Rhod4 ™ (D-values),CHO K1 cell line; [15],.94
same,"R4 + PI compens, MAF",[1],43.3
same,"R4 + PI, MAF",[1],51.9
same,"R4, MAF",[1],49.6
same,"F8 + PI, MAF",U-2 OS cells,52.9
same,"F8, MAF",U-2 OS cells,65.4
same,"R4 + PI compens, MAF",U-2 OS cells,54.5
same,"R4 + PI, MAF",U-2 OS cells,49.7
same,"R4, MAF",U-2 OS cells,62.8
"O=C1c2c(O)ccc(O)c2C(=O)c2c(NCCNCCO)ccc(NCCNCCO)c21 [Mitoxantrone, mitoxantrone]","D-value, Cyclosporine A",A549 cell line; [9],0.27
same,"D-value, FTC",A549 cell line; [9],0.28
same,"D-value, MK-571",A549 cell line; [9],0.37
same,"D-value, Novobiocin",A549 cell line; [9],0.28
same,"D-value, Verapamil",A549 cell line; [9],0.12
same,"D-value, Cyclosporine A",CHO K1 cell line; [10],0.34
same,"D-value, FTC",CHO K1 cell line; [10],0.21
same,"D-value, MK-571",CHO K1 cell line; [10],0.18
same,"D-value, Novobiocin",CHO K1 cell line; [10],0.22
same,"D-value, Verapamil",CHO K1 cell line; [10],0.42
"CO[C@@H]1[C@@H](OC(N)=O)[C@@H](O)[C@H](Oc2ccc3c(O)c(NC(=O)c4ccc(O)c(CC=C(C)C)c4)c(=O)oc3c2C)OC1(C)C [Novobiocin, novobiocin]","F8 + PI, D-values",CHO K1 cell line; [11],0.61
same,"Fluo-8 ™, D",CHO K1 cell line; [12],0.54
same,"R4 + PI, D-values",CHO K1 cell line; [13],0.66
same,"R4 + PI, D-values",CHO K1 cell line; [14],0.7
same,Rhod4 ™ (D-values),CHO K1 cell line; [15],.64
same,"R4 + PI compens, MAF",[1],2.8
same,"R4 + PI, MAF",[1],27.9
same,"R4, MAF",[1],17.9
same,"F8 + PI, MAF",U-2 OS cells,12.3
same,"F8, MAF",U-2 OS cells,17.9
same,"R4 + PI compens, MAF",U-2 OS cells,15.1
same,"R4 + PI, MAF",U-2 OS cells,10.7
same,"R4, MAF",U-2 OS cells,18.7
"C=Cc1c(C)c2cc3nc(c4c5[nH]c(cc6nc(cc1[nH]2)C(C)=C6CC)c(C)c5C(=O)[C@@H]4C(=O)OC)[C@@H](CCC(=O)O)[C@@H]3C [Pheophorbide A, pheophorbide A]","D-value, Fumitremorgan C",A549 cell line; [2],0.35
same,"D-value, Probenecid",A549 cell line; [2],0.16
same,"D-value, Verapamil",A549 cell line; [2],0.16
same,"D-values Post Inhibitor Treatment (compared to uninhibited cells), CsA",CHO K1 cell line; [16],0.25
same,"D-values Post Inhibitor Treatment (compared to uninhibited cells), FTC",CHO K1 cell line; [16],0.33
same,"D-values Post Inhibitor Treatment (compared to uninhibited cells), MK-571",CHO K1 cell line; [16],0.15
same,"D-values Post Inhibitor Treatment (compared to uninhibited cells), Verapamil",CHO K1 cell line; [16],0.14
same,"D-values Post Inhibitor Treatment (compared to uninhibited cells), CsA",CHO K1 cell line; [17],0.25
same,"D-values Post Inhibitor Treatment (compared to uninhibited cells), FTC",CHO K1 cell line; [17],0.34
same,"D-values Post Inhibitor Treatment (compared to uninhibited cells), MK-571",CHO K1 cell line; [17],0.14
same,"D-values Post Inhibitor Treatment (compared to uninhibited cells), Verapamil",CHO K1 cell line; [17],0.11
same,"D-value, Fumitremorgan C",CHO K1 cell line; [4],0.25
same,"D-value, Probenecid",CHO K1 cell line; [4],0.03
same,"D-value, Verapamil",CHO K1 cell line; [4],0.02
same,"D-values Post Inhibitor Treatment (compared to uninhibited cells), CsA",CHO K1 cell line; [5],0.20
same,"D-values Post Inhibitor Treatment (compared to uninhibited cells), FTC",CHO K1 cell line; [5],0.27
same,"D-values Post Inhibitor Treatment (compared to uninhibited cells), MK-571",CHO K1 cell line; [5],0.09
same,"D-values Post Inhibitor Treatment (compared to uninhibited cells), Verapamil",CHO K1 cell line; [5],0.18
same,"D-values Post Inhibitor Treatment (compared to uninhibited cells), CsA",CHO K1 cell line; [8],0.4
same,"D-values Post Inhibitor Treatment (compared to uninhibited cells), FTC",CHO K1 cell line; [8],0.41
same,"D-values Post Inhibitor Treatment (compared to uninhibited cells), MK-571",CHO K1 cell line; [8],0.13
same,"D-values Post Inhibitor Treatment (compared to uninhibited cells), Verapamil",CHO K1 cell line; [8],0.17
same,"D-value, Fumitremorgan C",HeLa cell line; [6],0
same,"D-value, Probenecid",HeLa cell line; [6],0
same,"D-value, Verapamil",HeLa cell line; [6],0
"CCCN(CCC)S(=O)(=O)c1ccc(C(=O)O)cc1 [Probenecid, probenecid]","R4 + PI compens, MAF",[1],38.5
same,"R4 + PI, MAF",[1],47.7
same,"R4, MAF",[1],34.0
same,"F8 + PI, MAF",U-2 OS cells,23.1
same,"F8, MAF",U-2 OS cells,57.5
same,"R4 + PI compens, MAF",U-2 OS cells,42.4
same,"R4 + PI, MAF",U-2 OS cells,24.0
same,"R4, MAF",U-2 OS cells,41.2
"COc1ccc(CCN(C)CCCC(C#N)(c2ccc(OC)c(OC)c2)C(C)C)cc1OC (stereo not shown) [Verapamil, verapamil]","F8 + PI, D-values",CHO K1 cell line,0.94
same,"Fluo-8 ™, D",CHO K1 cell line,0.92
same,"R4 + PI, D-values",CHO K1 cell line,0.96 and 0.95
same,Rhod4 ™ (D-values),CHO K1 cell line,0.94
same,"R4 + PI compens, MAF",[1],38.0
same,"R4 + PI, MAF",[1],41.3
same,"R4, MAF",[1],30.4
same,"F8 + PI, MAF",U-2 OS cells,33.0
same,"F8, MAF",U-2 OS cells,63.4
same,"R4 + PI compens, MAF",U-2 OS cells,54.1
same,"R4 + PI, MAF",U-2 OS cells,35.8
same,"R4, MAF",U-2 OS cells,42.5
